From patent US20240398783A1, “Compounds and Pharmaceutical Compositions Comprising Inhibitors of Amyloid Peptide Interactions with Glycosaminoglycans, Methods of Treatment and Use Thereof” (Gismo Therapeutics, Inc., priority 2021, published 2024)
pIC50: −log10 of the molar value. Structures can show the parent of a compound that is named as a salt.

Molecular target: T1, Amyloid-beta(1-40) binding to purified human brain membranes (Homo sapiens, UniProt P05067)
T1 construct: Beta-amyloid (1-40) from rPeptide (Cat No. A1153) was dissolved in DMSO; purchased rPeptide A1153
Test: Inhibition of Amyloid-beta(1-40) binding to purified human brain cell membranes (ELISA)
Conditions: Abeta(1-40), read-out: Abeta40/Membrane Activity (IC-50)
Description: Purified human brain cell membranes were prepared by differential centrifugation as follows. Five grams of frozen human brain postmortem tissue (obtained from University of Kentucky Alzheimer's Disease Center Tissue Bank) was homogenized in 50 ml HEPES-Buffered sucrose (0.32M sucrose, 4 mM HEPES pH7.4, protease inhibitors) with a motor driven glass-teflon homogenizer. After removing nuclear and cell debris by centrifugation of homogenates at 1,000×g for 10 min at 4 degree Celsius, post-nuclear supernatant was centrifuged at 100,000×g for 30 minutes to yield the crude membrane pellet. Crude membrane pellet was re-suspended in 0.32M sucrose, then centrifuged again at 100,000×g for 30 minutes to yield washed membrane pellet. Membrane pellet was resuspended in sterile PBS (pH7.4), quickly frozen, and kept in aliquots at −80 degrees Celsius. This preparation contains human brain cell membranes. Protein concentration was measured with BCA protein assay kit (Pierce Cat. No. 23227). Purified brain membranes were diluted to 0.01 mg/ml in PBS (pH 7.4) and then added to a 96 well polystyrene ELISA plate (NUNC Cat. No. 449824; 100 μl per well). Plates were incubated Over Night (ON) at 4 degrees Celsius. Following the incubation, the plate was washed consecutively, by immersion, with de-ionized water and PBS (pH 7.4). The ELISA plate was then blocked with nonfat milk (2%, 200 μl per well) for 2 hours at Room Temperature (RT). Following blocking, the plate was washed with de-ionized water then PBS (pH 7.4). GBAPs were dissolved and diluted in PBS (pH 6.5, supplemented with 0.1% BSA) at desired concentrations, added to the ELISA plates coated with brain membranes (100 μl per well) and incubated for 2 hours at RT with gentle shaking. Following incubation, the plate was washed with de-ionized water and three times with PBS (pH 6.5) plus Tween. Bound GBAP was detected by a monoclonal antibody specific for that GBAP, followed by incubation with secondary antibody conjugated to horseradish peroxidase (HRP). Antibody was diluted in PBS (pH6.5 supplemented with 1% BSA). Following each incubation with antibody, the plate was washed with de-ionized water and three times with PBS (pH6.5) wash buffer containing 0.1% Tween. The peroxidase substrate chromogen, TMB (Dako Cat. No. S1599) was added (100 μl per well) to the ELISA plate and incubated at room temperature. After 5 minutes ELISA Stop Solution (hydrochloric acid 1N, sulfuric acid 3N) was added (100 μl per well) to stop the peroxidase catalyzed colorimetric reaction. The Optical Density of the samples was measured at 450 nm using an ELISA plate reader (BioTek Synergy H1). Following color development, the % inhibition compared to control was determined. IC-50s were calculated using GraphPad Prism software.
The assay was performed as described in Example 49, with the following modifications. Following to coating the plates with purified human brain cell membranes, plates were washed as described. The compounds were dissolved in DMSO at 10 mM final concentration and further diluted prior to assay. DMSO concentration in the screening well was up to 2%. Individual compounds were co-incubated with Beta-amyloid peptides on plates coated with purified human brain membranes. Beta-amyloid (1-42) oligomers were prepared as described in Example 2. Beta-amyloid (1-40) from rPeptide (Cat No. A1153) was dissolved in DMSO, quickly frozen and kept in aliquots at −80 degrees Celsius. Beta-amyloid (1-42) oligomers or Beta-amyloid (1-40) dissolved in PBS (pH 6.5, supplemented with BSA, 0.1%) were added to the ELISA plate (100 μl per well) and incubated for 2 hours at RT with gentle shaking. Following the incubation, the plate was washed with de-ionized water and three times with PBS (pH 6.5) plus Tween. […]

T1 sequence (P05067 672-711): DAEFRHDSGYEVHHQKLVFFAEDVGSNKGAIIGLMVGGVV

First: Clc1ccc2c(N/N=C/c3ccc(-n4ccnc4)nc3)ccnc2c1 [Compound 14, (E)-4-(2-((6-(1H-imidazol-1-yl)pyridin-3-yl)methylene)hydrazineyl)-7-chloroquinoline hydrochloride]
Second: Clc1ccc2c(N/N=C/c3ccc(-n4ccnc4)cc3)ccnc2c1 [Compound 38, 4-(2-(4-(1H-imidazol-1-yl)benzylidene)hydrazineyl)-7-chloroquinoline dihydrochloride]
The pIC50 of the first is 1.70 log units lower: 4.74 for the first, 6.44 for the second. The second is the more potent here.

Going from C/C(=N\Nc1ncnc2cc(Cl)ccc12)c1ccc(-n2cnc(C)c2C)nc1 [Compound 16, 7-chloro-4-(2-(1-(6-(4,5-dimethyl-1H-imidazol-1-yl)pyridin-3-yl)ethylidene)hydrazineyl)quinazoline phosphate] to C/C(=N\Nc1ncnc2cc(F)ccc12)c1ccc(-n2cnc(C)c2C)nc1 [Compound 21, (E)-4-(2-(1-(6-(4,5-dimethyl-1H-imidazol-1-yl)pyridin-3-yl)ethylidene)hydrazineyl)-7-fluoroquinazoline], the pIC50 falls from 5.54 to 5.23 (0.31 log units).

Going from C/C(=N\Nc1ncnc2cc(Cl)ccc12)c1ccc(-n2cc[n+](C)c2)nc1 [Compound 17, (E)-1-(5-(1-(2-(7-chloroquinazolin-4-yl)hydrazineylidene)ethyl)pyridin-2-yl)-3-methyl-1H-imidazol-3-ium iodide phosphoric acid salt] to C/C(=N\Nc1ncnc2cc(F)ccc12)c1ccc(-n2cc[n+](C)c2)nc1 [Compound 26, (E)-1-(5-(1-(2-(7-fluoroquinazolin-4-yl)hydrazineylidene)ethyl)pyridin-2-yl)-3-methyl-1H-imidazol-3-ium phosphoric acid salt], the pIC50 rises from 4.55 to 5.82 (1.27 log units).

First: C/C(=N\Nc1ncnc2cc(Cl)ccc12)c1ccc(-n2cc(C)nc2C)nc1 [Compound 18, (E)-7-chloro-4-(2-(1-(6-(2,4-dimethyl-1H-imidazol-1-yl)pyridin-3-yl)ethylidene)hydrazineyl)quinazoline phosphoric acid salt]
Second: C/C(=N\Nc1ncnc2ccccc12)c1ccc(-n2cc(C)nc2C)nc1 [Compound 19, (E)-4-(2-(1-(6-(2,4-dimethyl-1H-imidazol-1-yl)pyridin-3-yl)ethylidene)hydrazineyl)quinazoline]
The pIC50 of the first is 0.75 log units lower: 4.76 for the first, 5.51 for the second.

First: CC(=NNc1ccnc2cc(Cl)ccc12)c1ccc(-n2cnc(C)c2C)nc1 [Compound 22, 7-chloro-4-(2-(1-(6-(4,5-dimethyl-1H-imidazol-1-yl)pyridin-3-yl)ethylidene)hydrazineyl)quinoline]
Second: CC(=NNc1ncnc2cc(Cl)ccc12)c1ccnc(-n2cnc(C)c2C)c1 [Compound 28, 7-chloro-4-(2-(1-(2-(4,5-dimethyl-1H-imidazol-1-yl)pyridin-4-yl)ethylidene)hydrazineyl)quinazoline]
The pIC50 of the first is 0.32 log units higher: 5.75 for the first, 5.43 for the second.

Compared with C/C(=N\Nc1nncc2cc(Cl)ccc12)c1ccc(-n2cc(C)nc2C)nc1 [Compound 24, (E)-6-chloro-1-(2-(1-(6-(2,4-dimethyl-1H-imidazol-1-yl)pyridin-3-yl)ethylidene)hydrazineyl)phthalazine], C/C(=N\Nc1ncnc2cc(Cl)ccc12)c1ccc(-n2cc(C)nc2C)nc1 [Compound 27, (E)-7-chloro-4-(2-(1-(6-(2,4-dimethyl-1H-imidazol-1-yl)pyridin-3-yl)ethylidene)hydrazineyl)quinazoline hydrochloride] is 1.04 log units higher in pIC50: 4.61 for the first, 5.65 for the second.

Compared with Cc1ncn(-c2ccc(Nc3ncnc4cc(Cl)ccc34)cn2)c1C [Compound 25, 7-chloro-N-(6-(4,5-dimethyl-1H-imidazol-1-yl)pyridin-3-yl)quinazolin-4-amine], Clc1ccc2c(Nc3ccc(-n4ccnc4)nc3)ncnc2c1 [Compound 41, N-(6-(1H-imidazol-1-yl)pyridin-3-yl)-7-chloroquinazolin-4-amine] is 0.60 log units lower in pIC50: 5.33 for the first, 4.73 for the second. The first is the more potent here.

Fc1cc(/C=N/Nc2ccnc3cc(Cl)ccc23)ccc1-n1ccnc1 [Compound 35, (E)-7-chloro-4-(2-(3-fluoro-4-(1H-imidazol-1-yl)benzylidene)hydrazineyl)quinoline hydrochloride] and Clc1ccc2c(Nc3ccc(-n4cncn4)nc3)ccnc2c1 [Compound 44, N-(6-(1H-1,2,4-triazol-1-yl)pyridin-3-yl)-7-chloroquinolin-4-amine] are within 0.2 log units of each other in pIC50: 4.38 for the first, 4.37 for the second.

First: CCN1CCN(c2ccc(Nc3ccnc4cc5ccccc5cc34)cc2)CC1 [Compound 39, N-(4-(4-ethylpiperazin-1-yl)phenyl)benzo[g]quinolin-4-amine]
Second: CCN(CC)Cc1cccc(Nc2ccnc3cc(Cl)ccc23)c1 [Compound 42, 7-chloro-N-(3-((diethylamino)methyl)phenyl)quinolin-4-amine]
The pIC50 of the first is 0.66 log units higher: 5.84 for the first, 5.18 for the second.
